Data reported in publication PMC2788676 (Journal of medicinal chemistry, 2009).

Legend:
μ-opioid receptor = details: read-out: μ-opioid receptor Ki; cited from earlier work
human μ-opiate receptor = human μ-opiate receptor (Homo sapiens, UniProt P35372); experiment: [35S]GTP-γ-S functional binding assay, CHO hMOR cells; type: biochemical; details: for Emax: read-out: μ-Agonism Emax %; for efficacy as μ-agonist (in words): [35S]GTP-γ-S functional assay
δ-opiate receptor = δ-opiate receptor (Homo sapiens, UniProt P41143); experiment: [3H]DADLE opioid receptor binding, transfected CHO cells; details: relative to μ Ki
κ-opiate receptor = κ-opiate receptor (Homo sapiens, UniProt P41145); experiment: [3H]U69,593 opioid receptor binding, transfected CHO cells; details: relative to μ Ki
Sequence of κ-opiate receptor (P41145 whole entry): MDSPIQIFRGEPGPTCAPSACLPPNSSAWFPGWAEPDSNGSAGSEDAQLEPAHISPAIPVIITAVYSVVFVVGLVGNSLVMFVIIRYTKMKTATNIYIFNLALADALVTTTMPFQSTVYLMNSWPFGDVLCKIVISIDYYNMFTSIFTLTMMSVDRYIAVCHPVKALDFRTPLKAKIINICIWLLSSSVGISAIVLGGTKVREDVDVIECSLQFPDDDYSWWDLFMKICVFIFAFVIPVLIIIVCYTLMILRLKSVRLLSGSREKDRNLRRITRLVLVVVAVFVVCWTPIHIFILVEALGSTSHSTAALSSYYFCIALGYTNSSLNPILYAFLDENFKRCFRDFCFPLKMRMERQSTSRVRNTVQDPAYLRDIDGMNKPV

Sequence of human μ-opiate receptor (P35372 whole entry): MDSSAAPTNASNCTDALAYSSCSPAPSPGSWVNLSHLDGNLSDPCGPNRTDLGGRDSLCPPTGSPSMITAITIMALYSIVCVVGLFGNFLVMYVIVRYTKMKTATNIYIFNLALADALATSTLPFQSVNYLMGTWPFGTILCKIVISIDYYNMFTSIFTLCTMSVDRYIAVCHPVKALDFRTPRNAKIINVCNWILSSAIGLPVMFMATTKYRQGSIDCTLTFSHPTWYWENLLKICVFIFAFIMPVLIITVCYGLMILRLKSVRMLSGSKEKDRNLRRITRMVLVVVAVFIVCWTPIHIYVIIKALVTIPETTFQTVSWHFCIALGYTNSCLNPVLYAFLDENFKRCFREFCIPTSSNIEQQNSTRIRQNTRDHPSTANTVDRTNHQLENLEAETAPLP
Sequence of δ-opiate receptor (P41143 whole entry): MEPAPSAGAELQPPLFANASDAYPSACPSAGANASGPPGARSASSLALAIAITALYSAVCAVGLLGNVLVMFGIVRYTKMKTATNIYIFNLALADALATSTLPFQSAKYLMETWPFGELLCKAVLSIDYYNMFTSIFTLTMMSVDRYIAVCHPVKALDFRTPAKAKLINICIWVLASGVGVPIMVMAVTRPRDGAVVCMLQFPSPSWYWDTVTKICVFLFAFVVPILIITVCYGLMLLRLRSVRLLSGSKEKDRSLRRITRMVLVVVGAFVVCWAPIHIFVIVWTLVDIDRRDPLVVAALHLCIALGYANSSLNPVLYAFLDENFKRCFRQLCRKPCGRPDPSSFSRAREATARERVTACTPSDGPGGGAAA

SMILES	Ki (μ-opioid receptor) [µM]	EC50 (human μ-opiate receptor) [µM]	Kb (human μ-opiate receptor) [µM]	Emax (human μ-opiate receptor) [%]	efficacy as μ-agonist (in words) (human μ-opiate receptor)	fold less affinity at the δ-receptor than at the μ-receptor (δ-opiate receptor)	fold less affinity at the κ-receptor than at the μ-receptor (κ-opiate receptor)
Oc1ccc2c(c1)[C@]13CCC[C@H](C1)NC[C@@H]3O2 (single isomer, unassigned) [para-d isomer, (3R*,6aS*11aR*)-1,3,4,5,6,11a-hexahydro-2H-3,6a-methanobenzofuro[2,3-c]azocin-8-ol]	1.22						
CC[C@@]12CCNC[C@@H]1Oc1ccc(O)cc12 [Compound 20, 4aS,9aR-(−)-cis-4a-Ethyl-1,2,3,4,4a,9a-hexahydrobenzofuro[2,3-c]pyridin-6-ol]		0.15 ± 0.025	0.095	97 ± 4			
CC[C@@]12CCN(C)C[C@@H]1Oc1ccc(O)cc12 [Compound 21, 4aS,9aR-(−)-cis-4a-Ethyl-2-methyl-1,2,3,4,4a,9a-hexahydrobenzofuro[2,3-c]pyridin-6-ol]		0.241 ± 0.047		45 ± 2	little efficacy		
CC[C@@]12CCN(CCc3ccccc3)C[C@@H]1Oc1ccc(O)cc12 [Compound 22, 4aS,9aR-(−)-cis-4a-Ethyl-2-(2-phenylethyl)-1,2,3,4,4a,9a-hexahydrobenzofuro[2,3-c]pyridin-6-ol]		0.024 ± 0.006		84 ± 4	potent agonist	more than 100 fold	more than 100 fold
CC[C@@]12CCN(C[C@@H](O)c3ccccc3)C[C@@H]1Oc1ccc(O)cc12 [Compound 23, 4aS,9aR,2′S-(−)-cis-2-(2′-Hydroxy-2-phenylethyl)-4a-ethyl-1,2,3,4,4a,9a-hexahydrobenzofuro[2,3-c]pyridin-6-ol]		0.56 ± 0.06		100 ± 3			
CC[C@@]12CCN(C[C@H](O)c3ccccc3)C[C@@H]1Oc1ccc(O)cc12 [Compound 24, 4aS,9aR,2′R-(−)-cis-2-(2′-Hydroxy-2-phenylethyl)-4a-ethyl-1,2,3,4,4a,9a-hexahydrobenzofuro[2,3-c]pyridin-6-ol]		0.48 ± 0.09		36 ± 2			
